Entries after “also recorded” stand apart in the source; their conditions may differ.
Assays:
[1] = LCMS analysis of cell lysate and media; type: in vitro ADME; conditions: 24 h treatment with FT
Protocol: In order to validate the delivery of the Thap-OH, LCMS analysis of the cell lysate and the media was used to detect the presence of both Folate-Thap (FT) and Thap-OH. […] To directly visualize the folate delivery of a small molecule, folic acid derivatives with appended fluorophores were designed. Both Folate-FITC, suitable for flow cytometry studies, and Folate-TMARA, suitable for high-throughput fluorescence plate readers, were evaluated in vitro to determine the delivery mechanism.

[2] = tested on: NOTCH1; test: NOTCH1 cell surface staining by flow cytometry; type: cell-based, human; conditions: T-ALL cells; for NOTCH1 expression on the cell surface: 24 hours
Description: We previously described that the SERCA inhibitors thapsigargin and cyclopiazonic acid impair NOTCH1 maturation leading to an accumulation of full-length, unprocessed polypeptides in the endoplasmic reticulum/Golgi subcellular compartment. An immediate consequence of SERCA inhibition is a decrement in NOTCH1 protein display on the surface of T-ALL cells. […] To further support the hypothesis that Thap-OH impairs mutant NOTCH1 maturation, we evaluated levels of full-length, transmembrane and activated NOTCH1 (ICN1) by WB. Lysates from T-ALL cell lines treated with 1 μM Thap-OH were immunoblotted with an antibody specific for the cytoplasmic portion of NOTCH1 that recognizes both unprocessed NOTCH1 (FL-N1) (˜270 kDa) and the furin-processed transmembrane subunit (TM-N1) (˜110 kDa).
The NOTCH loss was measured via flow cytometry. […] The recapitulation of the thapsigargin effect by JQ-FT is hypothesized to be due to the delivery strategy introduced by folate. […] Here cell growth was assessed using the Promega Cell-Titer Glo ATP-based assay (Promega, Madison, Wis., USA). Luminescence was measured using a Fluostar Omega instrument (BMG-labtech, Ortenberg, Germany).

[3] = tested on: murine NOTCH1 L1601P ΔPEST expressing leukemia lymphoblasts; test: Ex vivo treatment of murine NOTCH1 L1601P ΔPEST leukemia lymphoblasts; type: cell-based, mouse
Protocol: Viability data is represented as percentage relative to vehicle treatment and errors bars denote mean±SD of 3 replicates. Statistical significance of treated vs. vehicle (DMSO) samples (***P≤0.01; ***P≤0.001) was determined by one-way ANOVA with Bonferroni's correction for multiple comparison testing. […] The immunoblot contains cell lysates stained with anti-ICN1 antibody (Val1744) after treatment with the 10 μM of JQ-FT for 24 hours in vitro. GAPDH was used as a loading control ICN1 loss was quantified and bar graph (panel e) corresponds to the results of the quantification of three independent experiments. Statistical significance of treated vs. vehicle (DMSO) samples (*P≤0.05) was determined by Student's t-test. Expression of indicated NOTCH1 target genes HesI (panel d) and Dtx1 (panel e) in murine NOTCH1 L1601P ΔPEST expressing leukemia lymphoblasts treated with 10 μM JQ-FT for 24 hours was determined by qRT-PCR. Error bars indicate the mean±SD of 3 replicates. Data were analyzed using the ΔΔCT method and plotted as a percentage relative to the control gene Gapdh. Statistical significance for treated vs. vehicle (DMSO) (*P≤0.05) was determined by Student's t-test. […] The spleen and the liver of all mice were examined; representative results for one control animal and one JQ-FT-treated animal are shown. Formalin-fixed, paraffin-embedded tissue sections were stained using the hematoxylin and eosin stain (H & E) method. […] Anti-leukemic activity of JQ-FT was assessed by measuring spleen weight upon 5 days of JQ-FT treatment (60 mg/kg I.P) or vehicle (65% D5W+30% PEG-400+5% Tween-80only). […] Statistical significance for treated vs. vehicle (*P≤0.05) was determined by non-parametric t-test (Mann-Whitney). […] Statistical significance for treated vs. vehicle (*P≤0.05) was determined by non-parametric t-test (Mann-Whitney). […] ICN1 loss was quantified and bar graph (j) corresponds to the results of the quantification. Statistical significance for treated vs. vehicle (*P≤0.05) was determined by Student's t-test. […]

[4] = tested on: NOTCH1 L1601P ΔPEST T-ALL; test: Syngeneic T-ALL mouse model carrying NOTCH1 L1601P ΔPEST; type: in vivo
Protocol: Viability data is represented as percentage relative to vehicle treatment and errors bars denote mean±SD of 3 replicates. Statistical significance of treated vs. vehicle (DMSO) samples (***P≤0.01; ***P≤0.001) was determined by one-way ANOVA with Bonferroni's correction for multiple comparison testing. […] The immunoblot contains cell lysates stained with anti-ICN1 antibody (Val1744) after treatment with the 10 μM of JQ-FT for 24 hours in vitro. GAPDH was used as a loading control ICN1 loss was quantified and bar graph (panel e) corresponds to the results of the quantification of three independent experiments. Statistical significance of treated vs. vehicle (DMSO) samples (*P≤0.05) was determined by Student's t-test. Expression of indicated NOTCH1 target genes HesI (panel d) and Dtx1 (panel e) in murine NOTCH1 L1601P ΔPEST expressing leukemia lymphoblasts treated with 10 μM JQ-FT for 24 hours was determined by qRT-PCR. Error bars indicate the mean±SD of 3 replicates. Data were analyzed using the ΔΔCT method and plotted as a percentage relative to the control gene Gapdh. Statistical significance for treated vs. vehicle (DMSO) (*P≤0.05) was determined by Student's t-test. […] The spleen and the liver of all mice were examined; representative results for one control animal and one JQ-FT-treated animal are shown. Formalin-fixed, paraffin-embedded tissue sections were stained using the hematoxylin and eosin stain (H & E) method. […] Anti-leukemic activity of JQ-FT was assessed by measuring spleen weight upon 5 days of JQ-FT treatment (60 mg/kg I.P) or vehicle (65% D5W+30% PEG-400+5% Tween-80only). […] Statistical significance for treated vs. vehicle (*P≤0.05) was determined by non-parametric t-test (Mann-Whitney). […] Error bars indicate mean±SD of 4 replicates (of the 4 animals of each group). Statistical significance for treated vs. vehicle (*P≤0.05) was determined by non-parametric t-test (Mann-Whitney). […] The immunoblot contains splenic cell lysates stained with anti-ICN1 antibody (Val1744) after treatment with the 60 mg/Kg of JQ-FT for 5 days. GAPDH was used as a loading control. ICN1 loss was quantified and bar graph (j) corresponds to the results of the quantification. Statistical significance for treated vs. vehicle (*P≤0.05) was determined by Student's t-test.
In vitro studies provide valuable mechanistic insights but may not recapitulate tumor micro-environment and metabolic conditions in vivo. Indeed, a significant limitation of research on folate-conjugate drugs is the inconsistency between free folate concentrations (and other middle metabolites) in culture conditions in vitro versus in vivo. High levels of free folic acid in the sera may block the binding and uptake of JQ-FT in FR2-positive T-ALL compromising the anti-NOTCH1 leukemia effect observed in vitro. To explore the therapeutic efficacy of JQ-FT in vivo, we studied effects on a syngeneic T-ALL mouse model carrying a NOTCH1 L1601P ΔPEST, a common mutation observed in the human disease. First, leukemia cells obtained from this model were treated with JQ-FT for 24 hours in vitro.
Though the JQ-FT conjugate has not, as yet, been optimized for pharmacologic properties, we are eager to explore the utility of the compound as an in vivo chemical probe, while assessing putative tolerability of folate-conjugated thapsigargins. We first established the maximal tolerated dose (MTD) of JQ-FT as 60 mg/kg/day in mice, as administered by daily intraperitoneal injection. […]

Which “detection of the conjugate in cell culture media and cell lysate” value [1] does the source give for `C/C=C(/C)C(=O)O[C@H]1C(C)=C2C([C@@H]1OC(=O)CCCCCCC)[C@@](C)(OC(C)=O)C[C@H](OC(=O)CC[C@H](NC(=O)c1ccc(NCc3cnc4nc(N)[nH]c(=O)c4n3)cc1)C(=O)O)[C@@]1(O)[C@H]2OC(=O)[C@@]1(C)O` (stereo partly drawn) [JQ-FT] here?
The value was “not detected in either cell culture media (24 h treatment) or cell lysate”.

What about the “effect on cell surface NOTCH1 compared with thapsigargin” value [2] of the same compound?
Its value is “more similar to thapsigargin at 20 uM”.

And the “NOTCH1 expression on the cell surface” value [2]?
Its value is “show NOTCH loss”.

What about the “NOTCH1 expression on the cell surface” value ([2]; listed as Folate-Thap) of the same compound?
The value was “loss of Notch in a manner similar to thapsigargin”.

And the “ICN1 expression in murine leukemia cells” value ([3]; 10 μM JQ-FT, 24 hours)?
Its value is “diminished”.

What about the “transcription of NOTCH1 targets Hes1 and Dtx1” value ([3]; 10 μM JQ-FT, 24 hours) of the same compound?
The value was “diminished”.

What about the “proliferation of murine leukemia cells” value ([3]; ex vivo treatment with JQ-FT) of the same compound?
Its value is “diminished the proliferation”.

And the “bone marrow infiltration by T-ALL (GFP+ leukemia cells)” value ([4]; 60 mg/kg IP daily, five days)?
Its value is “markedly inhibited”.

And the “leukemic infiltration in spleen and liver (histology)” value ([4]; 60 mg/kg IP daily, five days)?
The value was “decrease of leukemic infiltration in spleen and liver; also recorded: Growth suppression of lymphoblasts”.

What about the spleen weight ([4]; 60 mg/kg IP daily, five days) of the same compound?
The spleen weight was “reduction in spleen weight”.

And the tumor growth ([4]; 60 mg/kg IP daily, five days)?
The tumor growth was “evident decrease in tumor growth”.

What about the “ICN1 expression in T-ALL cells from treated animals” value ([4]; 60 mg/kg, 5 days, splenic cell lysates, vs vehicle) of the same compound?
Its value is “reduced ICN1 expression”.

— patent US10525139B2, “Folate-conjugated molecules for delivery of toxic small molecule inhibitors to cancer cells and methods of use” (priority 2014, dated 2020)
